Laboratory results from US20250288588A1, “SUBSTITUTED IMIDAZOPYRIDINES AND IMIDAZOPYRIMIDINES, AND USE OF SAME FOR TREATING, AMELIORATING, AND/OR PREVENTING RETINAL DEGENERATION” (Yale University, priority 2022, published 2025).

Experiments:
Type in all cases: cell-based
Human ARPE-19 cells [1] = assay: TBHP oxidative stress-induced cell death, cell viability (RealTime-Glo MT); conditions: for cell viability after exposure to TBHP / protection from oxidative stress-induced cell death: p<0.0001; for protection from oxidative stress-induced cell death: FIG. 3, 0.6 μM compound preincubated 24 hours
Description: Immortalized human RPE cells (ARPE-19) obtained from the American Type Culture Collection (ATCC, Manassas, VA, USA) were cultured in Dulbecco's modified Eagle's medium (DMEM; Thermo Fisher Scientific, Waltham, MA) containing 10% fetal bovine serum (FBS), 100 IU/mL penicillin, 100 μg/mL streptomycin, 100 μg/mL gentamicin, and 2.5 μg/mL amphotericin B (Thermo Fisher Scientific).
Human ARPE-19 cells were plated in 96-well plates for 24 hours in DMEM supplemented with FBS and antibiotics. ARPE-19 cells were preincubated with either ciclopirox olamine (Sigma), compound 414 (Chemical Diversity, San Diego, CA), compound 434 (Chemical Diversity) or no compound for 24 hours and then exposed to varying concentrations of tert-butyl hydroperoxide (TBHP; Sigma-Aldrich, St. Louis, MO) the next day for 24 hours. Cell viability was measured the following day by RealTime-Glo™ MT cell viability assay (Promega, Madison, WI) using a BioTek FLx800™ fluorescence reader (BioTek, Winooski, VT).
Human ARPE-19 cells (CRL-2302; American Type Culture Collection) were preincubated with 0.9 μM of DH381-2 and DH421 for 24 hours and then exposed to 300 μM tert-butyl hydroperoxide (TBHP) to induce cell death for 24 hours.
Human ARPE-19 cells (CRL-2302; American Type Culture Collection) were preincubated with 0.9 μM of DH421 for 24 hours and then exposed to 250 μM tert-butyl hydroperoxide (TBHP) to induce cell death for 24 hours.
Human ARPE-19 cells (CRL-2302; American Type Culture Collection) with preincubated with 0.6 μM of compound DH421 or DH381-2 for 24 hours and then exposed to 300 μM tert-butyl hydroperoxide (TBHP) to induce cell death for 24 hours. Protective effects on human ARPE-19 cells treated with DH421 and DH381-2. **** p<0.0001.

Human ARPE-19 cells [2] = assay: Blue light damage, cell viability (RealTime-Glo MT); conditions: FIG. 4, 0.6 μM compound preincubated 24 hours, then blue light 156.7 LUX for 36 hours
Description: Human ARPE-19 cells were plated in 96-well plates for 24 hours in DMEM supplemented with FBS and antibiotics. The cells were preincubated with drug for 24 hours and then exposed to blue light (156.7 LUX for 36 hours). Cell viability was measured after 36 hours of blue light exposure using RealTime-Glo MT assays (Promega) with a BioTek FLx800 fluorescence reader (Bio Tek, Winooski, VT).
Human ARPE-19 cells (CRL-2302; American Type Culture Collection) were preincubated with 0.6 μM of compound DH421 or DH381-2 for 24 hours and then exposed to blue light (156.7 LUX for 36 hours). Protective effect of compound DH421 or DH381-2 on human ARPE-19 cells exposed to blue light (156.7 LUX for 36 hours). * p<0.05, *** p<0.01.

Human ARPE-19 cells [3] = assay: Cell viability on nitrite-modified extracellular matrix (ECM); conditions: FIG. 5, 1 μM, 3 μM, and 10 μM compound, seeded onto nitrite-modified ECM for 24 hours
Description: Immortalized human RPE (ARPE-19) cells were obtained from the ATCC, cultured, and maintained in DMEM (Invitrogen-Gibco, Life Technologies) containing 10% FBS, 100 IU/mL penicillin, 100 μg/mL streptomycin, and 100 μg/mL gentamicin (Invitrogen-Gibco, Life Technologies). These cells were incubated in a humidified atmosphere of 5% CO2 and 95% air at 37° C. ARPE-19 cells were grown on 24-well Transwell® permeable supports (Corning, Inc.) in 12-well plates or flat bottom 24-well plates for 6-8 weeks to allow the ECM to form. ARPE-19 cells were then removed by the addition of 20 mM ammonium hydroxide buffer for 20 min, and the ECM was washed with phosphate buffered saline (PBS). PBS was removed from the RPE-ECM plates and dried. Subsequently, 100 mM sodium nitrite was added to the ECM and incubated at 37° C. for 7 days. Plates were then washed with PBS and incubated with PBS for 4 hours. Finally, plates were washed with PBS to completely remove the nitrite. Cells are preincubated with drug for 24 hours and then seeded on nitrite-modified ECM for 24 hours. Cell viability was measured using RealTime-Glo MT assays (Promega) with a BioTek FLx800 fluorescence reader (Bio Tek, Winooski, VT). […]

Human RPE cells [4] = assay: TBHP oxidative stress-induced cell death, cell viability; conditions: FIG. 6, 0.6 μM compound preincubated 24 hours, then 300 μM TBHP 24 hours, p<0.0001
Description: Human RPE cells were preincubated with 0.6 μM of compound DH421 or DH381-2 for 24 hours and then exposed to 300 μM tert-butyl hydroperoxide (TBHP) to induce cell death for 24 hours. Protective effects on human RPE cells treated with DH421 and DH381-2. **** p<0.0001.

Human RPE cells [5] = assay: Blue light damage, cell viability; conditions: FIG. 7, 0.6 μM compound preincubated 24 hours, then blue light 156.7 LUX for 36 hours
Description: Human RPE cells were preincubated with 0.6 μM of compound DH421 or DH381-2 for 24 hours and then exposed to blue light (156.7 LUX for 36 hours). Protective effect of compound DH421 or DH381-2 on human RPE cells exposed to blue light (156.7 LUX for 36 hours). * p<0.05, *** p<0.01.

Human RPE cells [6] = assay: Cell viability on nitrite-modified extracellular matrix (ECM); conditions: FIG. 8, 1 μM compound, seeded onto nitrite-modified ECM for 24 hours, p<0.05
Description: Human RPE cells were treated with 1 μM of compound DH421 or DH381-2 and then seeded onto nitrite-modified ECM and untreated (normal) ECM for 24 hours. Protective effects of compound DH421 or DH381-2 on RPE cells seeded onto nitrite-modified ECM. *p<0.05.

Human RPE cells [7] = assay: Mitochondrial function after TBHP (oxygen consumption rate, Seahorse XF analyzer); conditions: FIGS. 9A-9B, 1 μM compound preincubated 18 hours, then 300 μM TBHP 24 hours; for ATP production compared to TBHP-treated group: p<0.001
Description: Human RPE cells were preincubated with 1 μM of compound DH381-2 and DH421 for 18 hours and then treated with 300 μM tert-butyl hydroperoxide (TBHP) for 24 hours. Oxygen consumption rate (OCR) was determined by Seahorse XF analyzer to measure mitochondrial function.

Human RPE cells [8] = assay: CellTox Green Cytotoxicity Assay; conditions: FIG. 10, 1 μM compound preincubated 24 hours
Description: Human RPE cells were preincubated with 1 μM of compound DH381-2 and DH421 for 24 hours. Cell toxicity was measured by CellTox Green Cytotoxicity Assay in human RPE cells after treatment with TBHP and compounds DH381-2 and DH421.

[9] = FIG. 1, 0.9 μM compound preincubated 24 hours, then 300 μM TBHP 24 hours

Compound	cell viability after exposure to TBHP (Human ARPE-19 cells [1]; [9])	protection from oxidative stress-induced cell death (Human ARPE-19 cells [1]; then 300 μM TBHP 24 hours)	protection from blue light damage (Human ARPE-19 cells [2])	cell viability on nitrite-modified ECM (Human ARPE-19 cells [3])	protection from oxidative stress-induced cell death (Human RPE cells [4])	protection from blue light damage (Human RPE cells [5])	cell viability on nitrite-modified ECM (Human RPE cells [6])	mitochondrial function (oxygen consumption rate) after oxidative stress (Human RPE cells [7])	ATP production compared to TBHP-treated group (Human RPE cells [7])	cytotoxicity level (Human RPE cells [8])	effect on cell growth suppression (Human ARPE-19 cells [1]; FIG. 2, 0.9 μM compound)	cell viability after exposure to TBHP (Human ARPE-19 cells [1]; FIG. 2, 0.9 μM compound preincubated 24 hours, then 250 μM TBHP 24 hours)
Oc1ccc(Br)cc1-c1nc2ncccn2c1Nc1ccccn1 [DH381-2, 4-bromo-2-(3-(pyridin-2-ylamino)imidazo[1,2-a]pyrimidin-2-yl)phenol]	significantly increased cell viability	protected	protected	enhanced	protected	protected	enhanced	improved mitochondrial function	increased ATP production	not affected	–	–
CCc1cccc(C)c1Nc1c(-c2cc(Br)ccc2O)nc2ccccn12 [DH421, 4-bromo-2-(3-((2-ethyl-6-methylphenyl)amino)imidazo[1,2-a]pyridin-2-yl)phenol]	significantly increased cell viability	protected	protected	enhanced	protected	protected	enhanced	improved mitochondrial function	increased ATP production	not affected	no effect on cell growth suppression	significantly increased cell viability
